# Results as given in patent US20240217973A1, “IMIDAZOPYRIDINE COMPOUNDS AND USE THEREOF” (MEDSHINE DISCOVERY INC., priority 2021, published 2024).
# Molecular target: BTK kinase (Homo sapiens (Human), UniProt Q06187)
# Assay: BTK kinase experiment (ADP-Glo)
# Format: biochemical
# Settings: 2 μM ATP, PolyE4Y1 substrate, 30 minutes pre-incubation
# Procedure: BTK kinase, PolyE4Y1 substrate and Kinase assay buffer III were purchased from Signalchem; ADP-Glo Kinase Assay was purchased from Promega; Nivo multi-label analyzer (PerkinElmer).
# 1× buffer preparation (which was prepared and used immediately): Kinase assay buffer III was diluted with ddH2O to 1× assay buffer for later use.
# The compound to be tested was diluted with 100% DMSO to 10 μM as the first concentration, and followed by a 5-fold dilution to the 8th concentration using a multi-channel pipette, i.e., it was diluted from 10 μM to 0.128 nM.
# Each gradient of the compound to be tested was diluted into a working solution with 5% DMSO using 1× buffer, 1 μL/well was added to the corresponding well, and a double-replicate well experiment was set up. 2 μL of BTK enzyme (4 ng) was add to each well and incubating at 25° C. for 30 minutes. After the incubation was completed, 2 μL of a mixture of substrate and ATP (2 μM ATP, 0.2 μg/μL PolyE4Y1) was added to each well and incubating at 25° C. for 120 minutes. At this point, the final concentration gradient of the compound was diluted from 100 nM to 0.00128 nM. After the reaction was completed, 5 μL of ADP-Glo reagent was added to each well, and the reaction continued at 25° C. for 40 minutes. After the reaction was completed, 10 μL of kinase detection reagent was added to each well. After reacting at 25° C. for 30 minutes, PerkinElmer Nivo multi-label analyzer was used to read the chemiluminescence, and the integration time was 0.5 seconds.
# Raw data was converted into inhibition rate using the equation: (Sample−Min)/(Max−Min)*100%. The IC50 value could then be derived by performing a curve fit using four-parameter (which was obtained using the “log(inhibitor) vs. response-Variable slope” mode in GraphPad Prism).
# Chain of BTK kinase (Q06187 whole entry): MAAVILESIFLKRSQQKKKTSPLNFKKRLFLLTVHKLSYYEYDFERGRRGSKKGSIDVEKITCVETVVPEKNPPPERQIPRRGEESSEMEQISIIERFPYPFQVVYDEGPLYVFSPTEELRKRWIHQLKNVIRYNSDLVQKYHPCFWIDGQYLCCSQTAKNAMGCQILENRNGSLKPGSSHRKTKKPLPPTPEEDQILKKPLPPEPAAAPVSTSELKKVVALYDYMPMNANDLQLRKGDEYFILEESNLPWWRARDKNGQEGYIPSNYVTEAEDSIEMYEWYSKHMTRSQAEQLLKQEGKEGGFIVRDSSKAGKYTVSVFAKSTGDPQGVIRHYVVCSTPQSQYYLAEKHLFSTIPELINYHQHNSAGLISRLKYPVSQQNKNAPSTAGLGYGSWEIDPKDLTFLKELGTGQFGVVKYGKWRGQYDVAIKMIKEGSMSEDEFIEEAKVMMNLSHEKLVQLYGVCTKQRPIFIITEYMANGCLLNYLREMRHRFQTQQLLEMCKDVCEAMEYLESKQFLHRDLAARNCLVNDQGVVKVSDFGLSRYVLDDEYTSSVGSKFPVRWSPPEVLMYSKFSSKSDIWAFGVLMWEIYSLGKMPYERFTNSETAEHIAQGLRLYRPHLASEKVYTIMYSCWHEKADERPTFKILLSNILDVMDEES
row,SMILES,IC50 [nM]
1,C=CC(=O)N1CCC[C@@H](n2c(=O)n(-c3ccc(CNC(=O)c4cc(F)ccc4OC)cc3)c3c(N)nccc32)C1 [Compound 001],0.71
2,COc1cccc(Oc2ccc(-n3c(=O)n([C@@H]4CCCN(C(=O)/C=C/CF)C4)c4ccnc(N)c43)cc2)c1F [Compound 004],2.46
3,Nc1nccc2c1n(-c1ccc(Oc3c(F)cccc3F)cc1)c(=O)n2[C@@H]1CCCN(C(=O)/C=C/CF)C1 [Compound 005],2.85
4,Nc1nccc2c1n(-c1ccc(Oc3ccc(Br)cn3)cc1)c(=O)n2[C@@H]1CCCN(C(=O)/C=C/CF)C1 [Compound 006],13.6
5,Nc1nccc2c1n(-c1ccc(Oc3ccc(Cl)cn3)cc1)c(=O)n2[C@@H]1CCCN(C(=O)/C=C/CF)C1 [Compound 007],16
6,Nc1nccc2c1n(-c1ccc(Oc3ccc(F)cn3)cc1)c(=O)n2[C@@H]1CCCN(C(=O)/C=C/CF)C1 [Compound 008],36.5
7,Nc1nccc2c1n(-c1ccc(Oc3ccccc3)c(F)c1)c(=O)n2[C@@H]1CCCN(C(=O)/C=C/CF)C1 [Compound 009],2.8
8,Cc1cc(-n2c(=O)n([C@@H]3CCCN(C(=O)/C=C/CF)C3)c3ccnc(N)c32)ccc1Oc1ccccc1 [Compound 010],3.04
9,Nc1nccc2c1n(-c1ccc(Oc3ccccc3)c(Cl)c1)c(=O)n2[C@@H]1CCCN(C(=O)/C=C/CF)C1 [Compound 011],1.57
